Activity calls are given as the source filed them. No cut-off for these calls is given here.
Assays:
Pseudomonas putida = assay: Inhibition of recombinant Pseudomonas putida C-terminal His-tagged phosphonatase
Bacteroides fragilis [1] = assay: Inhibition of recombinant Bacteroides fragilis phosphonopyruvate decarboxylase at 35 uM incubated for 3 mins by CD spectropolarimetric analysis
Bacteroides fragilis [2] = assay: Irreversible inhibition of recombinant Bacteroides fragilis phosphonopyruvate decarboxylase at 10 uM using phosphonopyruvate as substrate after overnight dialysis
Bacteroides fragilis [3] = assay: Inhibition of recombinant Bacteroides fragilis phosphonopyruvate decarboxylase at 35 uM incubated for 3 mins by UV-Vis spectrophotometric analysis
Bacteroides fragilis [4] = assay: Inhibition of recombinant Bacteroides fragilis phosphonopyruvate decarboxylase assessed as fluoride ion release up to 75 uM incubated for 30 mins by TISAB 2 solution based ion-selective electrode assay
Saccharomyces cerevisiae = assay: Inhibition of yeast alcohol dehydrogenase
Bacteroides fragilis [5] = assay: Irreversible inhibition of recombinant Bacteroides fragilis phosphonopyruvate decarboxylase at 10 to 50 uM using phosphonopyruvate as substrate
[6] = Binding affinity to recombinant Bacteroides fragilis phosphonopyruvate decarboxylase using phosphonopyruvate as substrate

SMILES: O=C(O)C(O)(O)C(F)(F)P(=O)(O)O
- inhibition (Pseudomonas putida): inactive
- inhibition (Bacteroides fragilis [1]): Active
- inhibition (Bacteroides fragilis [2]): Active
- inhibition (Bacteroides fragilis [3]): Active
- inhibition (Bacteroides fragilis [4]): Active
- inhibition (Saccharomyces cerevisiae): inactive
- TDI (Bacteroides fragilis [5]): Active
- Ki [6]: 600 nM

Source: ChEMBL document CHEMBL4052755, “Phosphonodifluoropyruvate is a mechanism-based inhibitor of phosphonopyruvate decarboxylase from Bacteroides fragilis” (Bioorg Med Chem, 2017)
